In this experiment the test system is M. mycetomatis genome strain MM55. Put plainly: CLSI M38-A2 based in vitro susceptibility screening (XTT or resazurin), growth at fixed concentration. Type of experiment: cell-based, Madurella mycetomatis. To be noted: Madurella mycetomatis; for Percent fungal survival at 100 µM: read-out: Percentage survival at 100um, 100 uM A (second replicate column).
Setting [1] is: mean, read-out: Percentage survival at 25um, 25 uM mean.
Where [2] appears, read: replicate A, read-out: Percentage survival at 25um, 25 um A.
The mark [3] stands for this setting: replicate B, read-out: Percentage survival at 25um, 25 uM B.
The mark [4] stands for this setting: replicate C, read-out: Percentage survival at 25um, 25 uM C.
[5] abbreviates: mean, read-out: Percentage survival at 100um, 100 uM mean.
The mark [6] stands for this setting: replicate (first column), read-out: Percentage survival at 100um, 100 uM A.
Where [7] appears, read: replicate (second column), read-out: Percentage survival at 100um, 100 uM A.
Setting [8] is: replicate (third column), read-out: Percentage survival at 100um, 100 uM A.
[9] abbreviates: mean of three replicates, read-out: Percentage survival at 25um, 25 uM mean.
Where [10] appears, read: mean of three replicates, read-out: Percentage survival at 100um, 100 uM mean.
[11] abbreviates: replicate 1, read-out: Percentage survival at 100um, 100 uM A (first replicate column).
Setting [12] is: replicate 3, read-out: Percentage survival at 100um, 100 uM A (third replicate column).
The mark [13] stands for this setting: mean of replicates, read-out: Percentage survival at 25um, 25 uM mean.
The mark [14] stands for this setting: mean of replicates, read-out: Percentage survival at 100um, 100 uM mean.
The mark [15] stands for this setting: replicate 1, read-out: Percentage survival at 100um, 100 uM A.
Setting [16] is: replicate 2, read-out: Percentage survival at 100um, 100 uM A.
[17] abbreviates: replicate 3, read-out: Percentage survival at 100um, 100 uM A.
Where [18] appears, read: mean of replicates, MM55, read-out: Percentage survival at 25um, 25 uM mean.
Where [19] appears, read: replicate A, MM55, read-out: Percentage survival at 25um, 25 um A.
Setting [20] is: replicate B, MM55, read-out: Percentage survival at 25um, 25 uM B.
[21] abbreviates: replicate C, MM55, read-out: Percentage survival at 25um, 25 uM C.
Setting [22] is: mean of replicates, MM55, read-out: Percentage survival at 100um, 100 uM mean.
Setting [23] is: replicate 1, MM55, read-out: Percentage survival at 100um, 100 uM A.
[24] abbreviates: replicate 2, MM55, read-out: Percentage survival at 100um, 100 uM A.
[25] abbreviates: replicate 3, MM55, read-out: Percentage survival at 100um, 100 uM A.
The mark [26] stands for this setting: first replicate column, read-out: Percentage survival at 100um, 100 uM A.
The mark [27] stands for this setting: second replicate column, read-out: Percentage survival at 100um, 100 uM A.
[28] abbreviates: third replicate column, read-out: Percentage survival at 100um, 100 uM A.

Like-named read-outs stand apart in the source and are kept apart here.

Turning to `O=C(Nc1[nH]c(=O)ncc1F)c1ccccc1` [MMV1782225], the activity at 25 µM came to 79% under setting [1], 82.4% under setting [2], 77.6% under setting [3] and 77.1% under setting [4]. Moreover, the activity at 100 µM by setting is: under setting [5], 83.6%; under setting [6], 74.1%; under setting [7], 79.1%; under setting [8], 97.6%.

As for `O=C(Nc1nnc(-c2ccc(Cl)cc2)o1)c1nc2ccccc2s1` [MMV102833], the activity at 25 µM was 111% under setting [9], 134% under setting [2], 137% under setting [3] and 62.9% under setting [4]. In addition, the activity at 100 µM worked out at 73.2% under setting [10], 81.5% under setting [11] and 71.7% under setting [12]. For the setting “replicate 2”, the Percent fungal survival at 100 µM worked out at 66.4%.

With `Fc1ccc2c(/C=C/c3nnn[nH]3)c[nH]c2c1` [MMV1578563], the activity at 25 µM reads like this: under setting [13], 87.2%; under setting [2], 86.3%; under setting [3], 93.6%; under setting [4], 81.6%. Also, the activity at 100 µM was found to be 98.8% under setting [14], 96% under setting [15], 91.8% under setting [16] and 109% under setting [17].

For the molecule `OCCCCn1cnc2c(O)nc(NCc3ccc(Cl)c(Cl)c3)nc21` [MMV1593542], the activity at 25 µM was 73.1% (mean of three, M. mycetomatis MM55, read-out: Percentage survival at 25um, 25 uM mean); 73.4% (replicate A, M. mycetomatis MM55, read-out: Percentage survival at 25um, 25 um A); 73.3% (replicate B, M. mycetomatis MM55, read-out: Percentage survival at 25um, 25 uM B); 72.6% (replicate C, M. mycetomatis MM55, read-out: Percentage survival at 25um, 25 uM C). In addition, the activity at 100 µM by setting is: (mean of three, M. mycetomatis MM55, read-out: Percentage survival at 100um, 100 uM mean) 74.4%; (replicate 1, M. mycetomatis MM55, read-out: Percentage survival at 100um, 100 uM A (first replicate column)) 82.6%; (replicate 3, M. mycetomatis MM55, read-out: Percentage survival at 100um, 100 uM A (third replicate column)) 70.1%. Further, the Percent fungal survival at 100 µM (replicate 2, M. mycetomatis MM55) worked out at 70.6%.

Take `O=C(NCc1ccc(F)cc1)c1c(O)c2ncccc2[nH]c1=O` [MMV1782097]: the activity at 25 µM under setting [18] was 95.5%, the activity at 25 µM under setting [19] amounted to 97.7%, the activity at 25 µM under setting [20] was 100% and the activity at 25 µM under setting [21] turned out to be 88.2%. For the same molecule, the activity at 100 µM by setting is: under setting [22], 82.8%; under setting [23], 86.6%; under setting [24], 79.1%; under setting [25], 82.7%.

For the molecule `Cc1[nH]c2ccccc2c1CCNCc1ccc(/C=C/C(=O)NO)cc1` [MMV010036], the activity at 25 µM runs as follows: under setting [9], 90.9%; under setting [2], 98.2%; under setting [3], 95.9%; under setting [4], 78.7%. The activity at 100 µM is 85.9% under setting [26], 77.1% under setting [10], 69.6% under setting [27] and 75.6% under setting [28].

For the molecule `Cc1c(CN(C)C(=O)/C=C/c2cnc3c(c2)C(C)(C)C(=O)N3)oc2ccccc12` [MMV1579788], the activity at 25 µM under setting [13] was found to be 75.8%, the activity at 25 µM under setting [2] was determined as 69.6%, the activity at 25 µM under setting [3] came out at 89.2% and the activity at 25 µM under setting [4] was determined as 68.5%. In addition, the activity at 100 µM under setting [14] is 90.5%, the activity at 100 µM under setting [15] stood at 57.9%, the activity at 100 µM under setting [16] was determined as 71.3% and the activity at 100 µM under setting [17] is 142%.

For the molecule `COc1nc2ccc(Br)cc2cc1[C@@H](c1ccccc1)[C@@](O)(CCN(C)C)c1cccc2ccccc12` [MMV689758], the activity at 25 µM under setting [9] came to 98.1%, the activity at 25 µM under setting [2] is 102%, the activity at 25 µM under setting [3] is 87.7% and the activity at 25 µM under setting [4] is 104%. Besides, the activity at 100 µM under setting [10] came out at 84.6%, the activity at 100 µM under setting [11] was 80.8% and the activity at 100 µM under setting [12] was 97.2%. Besides, the Percent fungal survival at 100 µM (replicate 2) is 75.9%.

Regarding `NC(=O)c1c(N)sc2c1CCCCC2` [MMV056052], the activity at 25 µM worked out at 95.4% under setting [9], 93.9% under setting [2], 104% under setting [3] and 87.9% under setting [4]. The activity at 100 µM by setting is: under setting [10], 84.7%; under setting [11], 86.2%; under setting [12], 87.9%. For the same molecule, the Percent fungal survival at 100 µM (replicate 2) was 80.1%.

In the case of `Cc1ccn2c(C(=O)NCc3ccccc3)c(C)nc2c1` [MMV1579847], the activity at 25 µM reads like this: under setting [9], 82.9%; under setting [2], 90.2%; under setting [3], 66.1%; under setting [4], 92.5%. The activity at 100 µM reads like this: under setting [10], 61.9%; under setting [11], 72.5%; under setting [12], 57.5%. In addition, the Percent fungal survival at 100 µM (replicate 2) came to 55.8%.

As for `CCCCCCC1c2ccc(O)cc2Oc2cc(O)ccc21` [MMV1593535], the activity at 25 µM is 72.3% under setting [1], 72.8% under setting [2], 89.7% under setting [3] and 54.6% under setting [4]. Besides, the activity at 100 µM came out at 21.5% under setting [5], 10.9% under setting [6], 14.4% under setting [7] and 39.1% under setting [8].

On to `Cn1cncc1[C@@](N)(c1ccc(Cl)cc1)c1ccc2c(c1)c(-c1cccc(Cl)c1)cc(=O)n2C` [MMV658803], for which the activity at 25 µM turned out to be 43.8% under setting [18], 0.79% under setting [19], 64.2% under setting [20] and 66.2% under setting [21]. For the same molecule, the activity at 100 µM is 36.3% under setting [22], 13.3% under setting [23], 45% under setting [24] and 50.7% under setting [25].

For `CNc1nc(=O)[nH]cc1F` [MMV1782388], the activity at 25 µM runs as follows: under setting [1], 81.1%; under setting [2], 88.9%; under setting [3], 76.2%; under setting [4], 78.1%. Further, the activity at 100 µM came to 93.4% under setting [5], 99.3% under setting [6], 85.3% under setting [7] and 95.6% under setting [8].

Take `Nc1ccc(-c2nc3cc(C(F)(F)F)ccc3n2C23CC4CC(CC(C4)C2)C3)cc1` [MMV1634385]: the activity at 25 µM by setting is: under setting [18], 82.4%; under setting [19], 108%; under setting [20], 85.4%; under setting [21], 54%. Also, the activity at 100 µM reads like this: under setting [22], 57.5%; under setting [23], 61.2%; under setting [24], 52.2%; under setting [25], 59.1%.

Regarding `C[C@H](Cn1cnc2c(N)ncnc21)OCP(=O)(O)O` [MMV1580478], the activity at 25 µM is, setting by setting: under setting [9], 99.2%; under setting [2], 98.1%; under setting [3], 110%; under setting [4], 89.5%. Further, the activity at 100 µM reads like this: under setting [26], 94.5%; under setting [10], 89%; under setting [27], 87.6%; under setting [28], 84.8%.

Turning to `CCc1cc(CCC(=O)Nc2ccccc2O)c(=O)[nH]c1C` [MMV1782106], the activity at 25 µM is, setting by setting: under setting [9], 91.9%; under setting [2], 84.9%; under setting [3], 85.4%; under setting [4], 105%. The activity at 100 µM under setting [26] is 83.7%, the activity at 100 µM under setting [10] stood at 83.9%, the activity at 100 µM under setting [27] is 82.9% and the activity at 100 µM under setting [28] is 85.1%.

Consider `Nc1ccc2oc(=O)ccc2c1I` [MMV1581378], for which the activity at 25 µM runs as follows: under setting [9], 80.5%; under setting [2], 75.8%; under setting [3], 85.5%; under setting [4], 80.1%. The activity at 100 µM by setting is: under setting [26], 75.4%; under setting [10], 64.9%; under setting [27], 66.2%; under setting [28], 53.2%.

The values are drawn from PMC8815882, “Screening the pandemic response box identified benzimidazole carbamates, Olorofim and ravuconazole as promising drug candidates for the treatment of eumycetoma” (PLoS Neglected Tropical Diseases, 2022).
